Source: BindingDB's records for doi:10.7270/Q2N014XN (Srmlsc, 2007)
Structures can show the parent of a compound that is named as a salt.

Biological target: T1, Diphosphomevalonate decarboxylase (Streptococcus pneumoniae serotype 2 (strain D39 / NCTC 7466), UniProt A0A0H2ZN59)
T1 sequence (A0A0H2ZN59 whole entry): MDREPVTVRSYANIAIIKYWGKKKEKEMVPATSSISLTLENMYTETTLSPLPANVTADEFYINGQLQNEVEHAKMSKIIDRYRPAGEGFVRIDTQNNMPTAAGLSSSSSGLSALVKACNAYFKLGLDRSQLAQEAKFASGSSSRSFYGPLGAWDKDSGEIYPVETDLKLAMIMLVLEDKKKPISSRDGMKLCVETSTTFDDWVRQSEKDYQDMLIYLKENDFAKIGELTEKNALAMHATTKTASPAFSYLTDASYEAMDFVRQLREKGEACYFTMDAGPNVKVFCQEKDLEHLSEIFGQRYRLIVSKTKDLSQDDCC
Experiment: diphosphomevalonate decarboxylase inhibition dose curves – biochemical, PK/LDH-coupled NADH fluorescence, hexokinase coupling counter-screen, dose response (AID 550)

[1] = inactive by the depositor's call

## Cc1c(NC(=O)C2CCN(S(=O)(=O)c3ccccc3)CC2)c(=O)n(-c2ccccc2)n1C [1-(benzenesulfonyl)-N-(1,5-dimethyl-3-oxo-2-phenyl-4-pyrazolyl)-4-piperidinecarboxamide]
  IC50: > 10000 µM

## Cc1nc2nc(C)c(CCC(=O)N3CCOCC3)c(C)n2n1 [1-(4-morpholinyl)-3-(2,5,7-trimethyl-[1,2,4]triazolo[1,5-a]pyrimidin-6-yl)-1-propanone]
  IC50: > 10000 µM

## COC(=O)c1[nH]c2cccc(OC)c2c1NC(=O)CCN1CCN(c2ccccc2OC)CC1 [MLS000040529]
  IC50: 27.4 µM

## O=C(O)CCn1nnc(-c2cccs2)n1 [3-(5-Thiophen-2-yl-tetrazol-2-yl)-propionic acid]
  IC50: > 10000 µM

## CCc1cc2c(=O)c(-c3nc4ccccc4n3C)c(C)oc2c(CN2CCN(C)CC2)c1O
  IC50: 49.5 µM

## O=C(COc1cnc2ccccc2n1)NCCC1=CCCCC1 [MLS000056304]
  IC50: 188 µM

## Oc1nc(-c2ccncc2)nc2ccccc12 [MLS000056988]
  IC50: > 10000 µM

## Cc1coc2cc3oc(=O)c4c(c3cc12)CCC4 [MLS000054228]
  IC50: 52.9 µM

## CCOC(=O)c1cc2c(=O)n3ccccc3nc2n(C(C)C)/c1=N\C(=O)c1ccncc1 [2-isonicotinoylimino-1-isopropyl-5-keto-dipyrido[1,2-d:3',4'-f]pyrimidine-3-carboxylic acid ethyl ester]
  IC50: 15.2 µM

## COC(=O)c1cc(NCc2c(F)cccc2Cl)ccc1N1CCOCC1 [5-[(2-chloro-6-fluoro-benzyl)amino]-2-morpholino-benzoic acid methyl ester]
  IC50: 80.4 µM

## CC(C)C(OC(=O)CN1C(=O)COc2ccccc21)C(=O)NC1CCCC1 (stereo not given) [(3-Oxo-2,3-dihydro-benzo[1,4]oxazin-4-yl)-acetic acid 1-cyclopentylcarbamoyl-2-methyl-propyl ester]
  IC50: > 10000 µM

## Cn1c(SCC(=O)N2CCOCC2)nnc1-c1ccc(NC(=O)c2ccccc2F)cc1 [2-fluoranyl-N-[4-[4-methyl-5-(2-morpholin-4-yl-2-oxidanylidene-ethyl)sulfanyl-1,2,4-triazol-3-yl]phenyl]benzamide]
  IC50: > 10000 µM

## N#CC(C(=O)NC1CCCCC1)c1nc2ccccc2nc1N1CCCCC1 (stereo not given) [2-cyano-N-cyclohexyl-2-(3-piperidin-1-ylquinoxalin-2-yl)acetamide]
  IC50: > 10000 µM

## COC(=O)c1ccccc1NC(=O)c1ccc2c(c1)C(=O)N(Cc1ccco1)C2=O [2-[[2-(2-furfuryl)-1,3-diketo-isoindoline-5-carbonyl]amino]benzoic acid methyl ester]
  IC50: 53.9 µM

## O=C(c1cc2nc(-c3ccc(F)cc3)cc(C(F)(F)F)n2n1)N1CCCC1 [MLS000109312]
  IC50: 53 µM

## COc1ccc(C(O)Cn2c(=N)n(CCCN(C)C)c3ccccc32)cc1 (stereo not given) [2-[2-azanylidene-3-[3-(dimethylamino)propyl]benzimidazol-1-yl]-1-(4-methoxyphenyl)ethanol;hydrochloride]
  IC50: > 10000 µM

## CCn1c2ccccc2c2nc3cc(OC)c(OC)cc3nc21 [6-Ethyl-2,3-dimethoxy-6H-indolo[2,3-b]quinoxaline]
  IC50: 30.6 µM

## Cn1cc(O)nc1NC(=O)C12CC3CC(CC(C3)C1)C2
  IC50: > 10000 µM

## CC1(C)Cc2nc3sc4c(=O)[nH]cnc4c3cc2CS1 [8,8-dimethyl-7,10-dihydro-8H-thiopyrano[3'',4'':5',6']pyrido[3',2':4,5]thieno[3,2-d]pyrimidin-4(3H)-one]
  IC50: 108 µM

## CCn1nc(-c2ccccc2)nc2c(=O)n(C)c(=O)nc1-2 [1-Ethyl-6-methyl-3-phenyl-1H-pyrimido[5,4-e][1,2,4]triazine-5,7-dione]
[1]
  IC50: 20 µM

## O=C(c1ccc(F)cc1)N1CCC(N2CCCCCC2)CC1 [MLS000037563]
  IC50: > 10000 µM

## COc1cc(-c2nc3cnccc3n2C)cc(OC)c1OC [1-Methyl-2-(3,4,5-trimethoxy-phenyl)-1H-imidazo[4,5-c]pyridine]
  IC50: > 10000 µM

## COc1ccc(C(=O)NCc2cn3c(C)csc3n2)cc1OC [3,4-dimethoxy-N-[(3-methyl-6-imidazo[2,1-b]thiazolyl)methyl]benzamide]
  IC50: > 10000 µM

## CCOC(=O)c1cc2c(=O)n3cccc(C)c3nc2n(CCc2ccccc2)c1=N [2-imino-10-methyl-5-oxo-1-(2-phenylethyl)-3-dipyrido[3,4-c:1',2'-f]pyrimidinecarboxylic acid ethyl ester]
  IC50: 27.2 µM

## O=S(=O)(Nc1cccc2ncccc12)c1cccs1 [MLS000057468]
  IC50: > 10000 µM

## Cc1cccc(OCC(O)Cn2c(-n3nc(C)cc3C)nc3c2c(=O)[nH]c(=O)n3C)c1 (stereo not given) [8-(3,5-dimethylpyrazol-1-yl)-7-[2-hydroxy-3-(3-methylphenoxy)propyl]-3-methylpurine-2,6-dione]
  IC50: > 10000 µM

## CCOC(=O)CC(=O)CSc1ccc2nnc(-c3ccc(C)cc3)n2n1 [3-keto-4-[[3-(p-tolyl)-[1,2,4]triazolo[4,3-b]pyridazin-6-yl]thio]butyric acid ethyl ester]
  IC50: 287 µM

## O=c1c2cc(N3CCOCC3)ccc2[nH]c(=S)n1CCCN1CCN(c2ccccc2F)CC1 [SMR000030978]
  IC50: 58.7 µM

## Nc1cccc2c1C(=O)N(c1ccccc1)C2=O [4-azanyl-2-phenyl-isoindole-1,3-dione]
[1]
  IC50: 60.5 µM

## COC(=O)C1=C(C)OC(=N)C(C#N)C1c1cc(OC)c(OCC(N)=O)cc1Cl (stereo not given) [6-Amino-4-(4-carbamoylmethoxy-2-chloro-5-methoxy-phenyl)-5-cyano-2-methyl-4H-pyran-3-carboxylic acid methyl ester]
  IC50: > 10000 µM

## O=C(CSc1nnc2ccccn12)Nc1ccccc1C(=O)NC1CC1 [MLS000056825]
  IC50: > 10000 µM

## Clc1c(-c2nnc3n2CCC3)sc2ccccc12 [3-(3-chloranyl-1-benzothiophen-2-yl)-6,7-dihydro-5H-pyrrolo[2,1-c][1,2,4]triazole]
  IC50: > 10000 µM

## COc1ccc2c(c1)C1(C)CC(C)(C)N2C(=O)N1c1ccccc1 (stereo not given) [MLS000027457]
  IC50: 182 µM

## CCc1ccc(CCC(=O)Nc2ccc(C)c(C)c2)o1 [MLS000064736]
  IC50: > 10000 µM

## COc1ccc(-c2nc(C(N)=O)c3[nH]c(=O)n(-c4cccc(C)c4)c3n2)c(OC)c1 [SMR000016861]
  IC50: 128 µM

## CCC(=O)N(Cc1cc2cc(OC)ccc2[nH]c1=O)c1cc(C)ccc1C
  IC50: 88.5 µM

## CCn1cc(C(=O)NCc2ccco2)c(=O)c2cc(F)c(N3CCN(C(=O)c4ccco4)CC3)cc21 [1-ethyl-6-fluoranyl-7-[4-(furan-2-ylcarbonyl)piperazin-1-yl]-N-(furan-2-ylmethyl)-4-oxidanylidene-quinoline-3-carboxamide]
  IC50: 16.7 µM

## O=c1c2ccccc2sn1-c1ccc(S(=O)(=O)N2CCCC2)cc1 [2-(4-pyrrolidin-1-ylsulfonylphenyl)-1,2-benzothiazol-3-one]
  IC50: 2.65 µM

## COc1cc(CNc2ccc(N3CCOCC3)c(C(=O)O)c2)ccc1OCC(N)=O [5-[[4-(2-amino-2-keto-ethoxy)-3-methoxy-benzyl]amino]-2-morpholino-benzoic acid]
  IC50: 65.5 µM

## COc1cc2c(cc1OC)C(CC(=O)N1CCOCC1)=NC(C)(C)C2 [(2Z)-2-(6,7-dimethoxy-3,3-dimethyl-2,4-dihydroisoquinolin-1-ylidene)-1-(4-morpholinyl)ethanone;hydrochloride]
  IC50: 38.8 µM

## Cc1c(C(=O)NCc2ccc3c(c2)OCO3)sc2nc(-c3ccccc3)cn12 [3-methyl-6-phenyl-N-piperonyl-imidazo[2,1-b]thiazole-2-carboxamide]
  IC50: > 10000 µM

## CN(C)C(=O)Nc1cnc2ccccc2c1 [1,1-dimethyl-3-(3-quinolinyl)urea]
  IC50: > 10000 µM

## Cc1ccc(C2C3CN(C(C)C)CCC3=C(C#N)C(=N)C2(C#N)C#N)cc1 (stereo not given) [SMR000034220]
  IC50: 39.6 µM

## CCOc1ccc(C(=O)O)cc1OC [4-ethoxy-3-methoxy-benzoic acid]
  IC50: > 10000 µM

## Cc1ccccc1Cn1cc(NC(=O)c2cc3nc(-c4ccco4)cc(C(F)(F)F)n3n2)cn1 [5-(2-furanyl)-N-[1-[(2-methylphenyl)methyl]-4-pyrazolyl]-7-(trifluoromethyl)-2-pyrazolo[1,5-a]pyrimidinecarboxamide]
  IC50: 31.4 µM

## Nc1c(S(=O)(=O)c2cccs2)c2nc3ccccc3nc2n1Cc1ccc2c(c1)OCO2 [1-(1,3-benzodioxol-5-ylmethyl)-3-thiophen-2-ylsulfonyl-2-pyrrolo[3,2-b]quinoxalinamine]
  IC50: 31.9 µM

## COc1ccc(NC(=O)c2nnn(Cc3ccc(SC)cc3)c2N)c(OC)c1 [5-amino-N-(2,4-dimethoxyphenyl)-1-[(4-methylsulfanylphenyl)methyl]triazole-4-carboxamide]
  IC50: 28.5 µM

## O=C(Nc1ccc2nc(-c3cccs3)c(-c3cccs3)nc2c1)N1CCOCC1 [MLS000050299]
  IC50: 25.8 µM

## Cc1oc2cc(O)ccc2c(=O)c1N1C(=O)c2ccccc2C1=O [2-(2-methyl-7-oxidanyl-4-oxidanylidene-chromen-3-yl)isoindole-1,3-dione]
  IC50: 50.5 µM

## COC(=O)c1cc(OC)c(OC)cc1NC(=O)c1oc2ccccc2c1C [4,5-dimethoxy-2-[(3-methylbenzofuran-2-carbonyl)amino]benzoic acid methyl ester]
  IC50: > 10000 µM

## O=C(O)c1cccn2c(=O)c3ccccc3nc12 [11-Oxo-11H-pyrido[2,1-b]quinazoline-6-carboxylic acid]
[1]
  IC50: 66.7 µM

## O=C(c1ccccc1F)N(Cc1ccccc1)C1CCS(=O)(=O)C1 (stereo not given) [MLS000039394]
  IC50: > 10000 µM

## Nc1c(C(=O)NC2CCCC2)c2nc3ccccc3nc2n1N=Cc1cccnc1 [2-amino-N-cyclopentyl-1-(3-pyridinylmethylideneamino)-3-pyrrolo[3,2-b]quinoxalinecarboxamide]
  IC50: 17.1 µM

## Nc1cc(C(=O)O)ccc1Nc1ccccc1 [3-amino-4-anilino-benzoic acid]
[1]
  IC50: 120 µM

## CC(C)/N=c1/cc2n(-c3ccc(Cl)cc3)c3ccccc3nc-2cc1Nc1ccc(Cl)cc1
  IC50: 2.89 µM
